This note sets out measurements from US8937067B2, “Activators of human pyruvate kinase” (The United States of America, as represented by the …, priority 2008, dated 2015).

The target of test [1] is T1, hPK-M2 (Homo sapiens, UniProt P14618). Kind of test: Fluorescent pyruvate kinase-lactate dehydrogenase (LDH) coupled secondary assay. It is filed as biochemical. The conditions noted are these: for Emax: read-out: maximum response, LDH assay; for LDH hPK, M2 Max. Res.: % activation at 57 μM of compound. As for the experimental part: Fluorescent Pyruvate Kinase-Lactate Dehydrogenase Coupled Secondary Assay.
T1 sequence (P14618 whole entry): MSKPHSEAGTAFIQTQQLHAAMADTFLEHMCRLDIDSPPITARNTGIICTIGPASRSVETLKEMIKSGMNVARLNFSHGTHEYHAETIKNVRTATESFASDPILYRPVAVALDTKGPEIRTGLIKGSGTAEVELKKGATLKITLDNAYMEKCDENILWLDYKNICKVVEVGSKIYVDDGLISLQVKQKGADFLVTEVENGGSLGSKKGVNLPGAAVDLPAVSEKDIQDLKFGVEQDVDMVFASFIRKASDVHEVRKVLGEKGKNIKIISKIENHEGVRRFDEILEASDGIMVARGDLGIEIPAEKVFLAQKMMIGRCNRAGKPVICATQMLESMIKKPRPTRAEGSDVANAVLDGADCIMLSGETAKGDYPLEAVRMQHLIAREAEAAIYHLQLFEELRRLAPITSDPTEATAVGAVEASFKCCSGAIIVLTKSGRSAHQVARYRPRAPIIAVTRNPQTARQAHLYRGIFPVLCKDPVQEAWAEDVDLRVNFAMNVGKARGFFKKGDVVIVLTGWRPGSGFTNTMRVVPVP
Plates were immediately placed in ViewLux (Perkin Elmer) and NADH fluorescence was determined at 30 second exposure intervals for between 3 and 6 minutes. Data were normalized to the uninhibited and EC100 activation using known activators such as fructose-1,6-bis-phosphate. […] Data was collected on the Perkin Elmer Viewlux.

The target of test [2] is T1, hPK-M2. Kind of test: Luminescent pyruvate kinase-luciferase coupled assay (KinaseGlo). It is filed as biochemical. The conditions noted are these: for activation at 57 µM / hPK, M2 Max. Res.: KinaseGlo, % activation at 57 μM of compound; for activation at 57 µM: read-out: hPK, M2 Max. Res.; for Emax: read-out: maximum response. In short, it runs like this:
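Activation assay with 0.1 mM ADP and 0.5 mM PEP in 50 mM imidazole pH 7.2, 50 mM KCl, 7 mM MgCl2, 0.01% tween 20, 0.05% BSA; 1 h at r.t. ATP produced was read by luciferase luminescence. AC50 values were normalized to DMSO (uninhibited enzyme) and no-enzyme controls.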

The mark [3] stands for this setting: luminescent pyruvate kinase-luciferase coupled assay (KinaseGlo), tables, read-out: hPK, M2 AC50.
The mark [4] stands for this setting: luciferase-coupled assay, relative to activation by FBP.
The mark [5] stands for this setting: tables, read-out: LDH hPK, M2 AC50.

As for `Cn1c2cc(C=O)sc2c2cnn(Cc3ccccc3F)c(=O)c21` [Compound 84, 2-Formyl-4-methyl-6-[(2-fluorophenyl)methyl]-4H-thieno[3,2-b]pyrrole[3,2-d]pyridazinone], the AC50 turned out to be 100 ± 10 nM on hPK-M2 [1] (read-out: AC50, LDH assay) and 16 ± 10 nM at hPK-M2 [2] (setting [3]). Moreover, the Emax at hPK-M2 [1] is 239%. In addition, the activation at 57 µM at hPK-M2 [2] is 99.8 ± 6.5%.
For `Cn1c2cc(CO)sc2c2cnn(Cc3ccccc3F)c(=O)c21` [Compound 85, 2-Hydroxylmethyl-4-methyl-6-[(2-fluorophenyl)methyl]-4H-thieno[3,2-b]pyrrole[3,2-d]pyridazinone], in that order: 220 ± 30 nM, 48 ± 10 nM, 155% and 103 ± 7.2%.
The like results for `CC(=O)c1cc2c(s1)c1cnn(Cc3ccccc3F)c(=O)c1n2C` [Compound 87, 2-Acetyl-4-methyl-6-[(2-fluorophenyl)methyl]-4H-thieno[3,2-b]pyrrole[3,2-d]pyridazinone] were, in that order, 150 ± 30 nM, 11 nM, 200% and 108 ± 4.9%.
Take `Cc1cc2c(s1)c1c(C)nn(Cc3ccccc3F)c(=O)c1n2C` [Compound 92, 2,4,8-Methyl-6-[(2-fluorophenyl)methyl]-4H-thieno[3,2-b]pyrrole[3,241]-pyridazinone]: the Emax on hPK-M2 [1] and on hPK-M2 [2] (setting [4]) was less than 80% each time.
For the compound `Cn1c2ccsc2c2ncn(Cc3ccccc3F)c(=O)c21` [Compound 100, 4-Methyl-6-[(2-fluorophenyl)methyl]-4H-thieno[3,2-b]pyrrole[3,2-d]pyrimidinone], the Emax at hPK-M2 [1] and on hPK-M2 [2] (setting [4]) was less than 80% throughout.
Turning to `Cc1cc2c(s1)c1cnn(Cc3ccc(Cl)cc3)c(=O)c1n2C` [Compound 108, 2,4-Methyl-6-[(4-chlorophenyl)methyl]-4H-thieno[3,2-b]pyrrole[3,2-d]pyridazinone], the AC50 at hPK-M2 [1] (read-out: AC50, LDH assay) was determined as 1650 nM; at hPK-M2 [2] (setting [3]), 326 ± 90 nM. Besides, the Emax at hPK-M2 [1] came out at 191%. In addition, the activation at 57 µM on hPK-M2 [2] came to 90.6 ± 3.3%.
For `Cc1cc2c(s1)c1cnn(Cc3ccc(C(F)(F)F)cc3)c(=O)c1n2C` [Compound 110, 2,4-Methyl-6-[(4-trifluoromethylphenyl)methyl]-4H-thieno[3,2-b]pyrrole[3,2-d]pyridazinone], in that order: 2200 nM, 553 ± 130 nM, 77% and 56.1 ± 5.4%.
In the case of `COc1ccc(Cn2ncc3c4sc(C)cc4n(C)c3c2=O)cc1` [Compound 111, 2,4-Methyl-6-[(4-methoxyphenyl)methyl]-4H-thieno[3,2-b]pyrrole[3,2-d]pyridazinone], the AC50 on hPK-M2 [1] (read-out: AC50, LDH assay) was 230 ± 40 nM; at hPK-M2 [2] (setting [3]), 37 ± 10 nM. The Emax at hPK-M2 [1] worked out at 258%. Moreover, the activation at 57 µM at hPK-M2 [2] is 96.2 ± 2.5%.
With `Cc1cc2c(s1)c1cnn(Cc3ccc(F)cc3F)c(=O)c1n2C` [Compound 112, 2,4-Methyl-6-[(2,4-difluorophenyl)methyl]-4H-thieno[3,2-b]pyrrole[3,2-d]pyridazinone], the AC50 at hPK-M2 [1] (read-out: AC50, LDH assay) came out at 170 ± 30 nM; at hPK-M2 [2] (setting [3]) it was 44 ± 10 nM. Moreover, on hPK-M2 [1], the Emax amounted to 217%.
Regarding `Cc1cc2c(s1)c1cnn(Cc3c(F)cccc3F)c(=O)c1n2C` [Compound 113, 2,4-Methyl-6-[(2,6-difluorophenyl)methyl]-4H-thieno[3,2-b]pyrrole[3,2-d]pyridazinone], the AC50 on hPK-M2 [1] (read-out: AC50, LDH assay) was determined as 140 ± 10 nM; at hPK-M2 [2] (setting [3]), 49 ± 20 nM. The Emax on hPK-M2 [1] is 240%. The activation at 57 µM on hPK-M2 [2] was 93.8 ± 5%.
For the compound `Cc1cc2c(s1)c1cnn(Cc3ccc(C(F)(F)F)cc3F)c(=O)c1n2C` [Compound 120, 2,4-Methyl-6-[(2-fluoro-4-trifluoromethylphenyl)methyl]-4H-thieno[3,2-b]pyrrole[3,2-d]pyridazinone], the Emax at hPK-M2 [1] and on hPK-M2 [2] (setting [4]) was less than 80% in each case. Also, the activation at 57 µM at hPK-M2 [2] was found to be 59.3 ± 18%.
As to `COc1ccc(Cn2ncc3c4sc(C)cc4n(C)c3c2=O)cc1F` [Compound 121, 2,4-Methyl-6-[(3-fluoro-4-methoxyphenyl)methyl]-4H-thieno[3,2-b]pyrrole[3,2-d]pyridazinone], the “maximum response, LDH assay” value on hPK-M2 [1] is 135±20%. Besides, the AC50 on hPK-M2 [1] (read-out: AC50, LDH assay) came to 1000 nM; on hPK-M2 [2] (luciferase-coupled assay, read-out: AC50) it was 225 ± 97 nM. Moreover, the “hPK, M2 Max. Res.” value at hPK-M2 [2] is 68.2 ± 7.9%. Moreover, the maximum response at hPK-M2 [2] (setting [4]) was 68.2%.
Turning to `Nc1ccc(S(=O)(=O)N2CCN(S(=O)(=O)c3c(F)cccc3F)CC2)cc1` [Compound 123], the “LDH hPK, M2 Max. Res.” value at hPK-M2 [1] was 170.98%. Moreover, the AC50 on hPK-M2 [1] (setting [5]) turned out to be 410 nM; on hPK-M2 [2] (setting [3]) it was 651 nM. In addition, the activation at 57 µM on hPK-M2 [2] amounted to 82.6%.
`Nc1cccc(S(=O)(=O)N2CCCN(S(=O)(=O)c3ccc4c(c3)OCCO4)CC2)c1` [Compound 124]: the “LDH hPK, M2 Max. Res.” value at hPK-M2 [1] is listed as 169.71%. On hPK-M2 [2], the activation at 57 µM was found to be 88.9%. The AC50 on hPK-M2 [2] (setting [3]) was 32.6 nM.
Regarding `Nc1ccc(S(=O)(=O)N2CCCN(S(=O)(=O)c3ccc4c(c3)OCCO4)CC2)cc1` [Compound 125], on hPK-M2 [1], the “LDH hPK, M2 Max. Res.” value was determined as 131.59%. Moreover, the results for the AC50 at hPK-M2 [1] (setting [5]) and on hPK-M2 [2] (setting [3]) were 163 nM and 103 nM, respectively. The activation at 57 µM at hPK-M2 [2] was 86.6%.
The like results for `COc1cc(F)c(S(=O)(=O)N2CCCN(S(=O)(=O)c3cccc(NC(C)=O)c3)CC2)c(F)c1` [Compound 126] were, in that order, 114.61%, 2910 nM, 2910 nM and 83.8%.
On to `COc1cc(F)c(S(=O)(=O)N2CCCN(S(=O)(=O)c3ccc4c(c3)OCCO4)CC2)c(F)c1` [Compound 128], for which the “LDH hPK, M2 Max. Res.” value on hPK-M2 [1] was found to be 159.85%. Also, the AC50 was 58 nM on hPK-M2 [1] (setting [5]) and 36.6 nM on hPK-M2 [2] (setting [3]). For the same compound, the activation at 57 µM at hPK-M2 [2] was 96.7%.
As for `CC(=O)Nc1cccc(S(=O)(=O)N2CCCN(S(=O)(=O)c3ccc4c(c3)OCCO4)CC2)c1` [Compound 131], the “LDH hPK, M2 Max. Res.” value on hPK-M2 [1] came to 123.67%. Also, the AC50 on hPK-M2 [1] (setting [5]) and at hPK-M2 [2] (setting [3]) was 819 nM in each case. Besides, the “hPK, M2 Max. Res.” value on hPK-M2 [2] was 91.11%.
In the case of `CC(=O)Nc1ccc(S(=O)(=O)N2CCCN(S(=O)(=O)c3ccc4c(c3)OCCO4)CC2)cc1` [Compound 132], on hPK-M2 [1], the “LDH hPK, M2 Max. Res.” value amounted to 123.97%. The half-maximal activity concentration (AC50) on hPK-M2 [1] (setting [5]) worked out at 2590 nM; on hPK-M2 [2] (setting [3]), 4110 nM. Moreover, at hPK-M2 [2], the activation at 57 µM is 81.1%.
`COc1cc(F)c(S(=O)(=O)N2CCN(S(=O)(=O)c3cccc(NC(C)=O)c3)CC2)c(F)c1` [Compound 133]: the “LDH hPK, M2 Max. Res.” value on hPK-M2 [1] was 94.88%. Besides, the values for the AC50 on hPK-M2 [1] (setting [5]) and at hPK-M2 [2] (setting [3]) were 1030 nM and 1630 nM, respectively. In addition, on hPK-M2 [2], the “hPK, M2 Max. Res.” value was 60.00%.
The like results for `COc1cc(F)c(S(=O)(=O)N2CCN(S(=O)(=O)c3cccc(N)c3)CC2)c(F)c1` [Compound 134] were, in that order, 141.67%, 73 nM, 23.1 nM and 87.00%.
For `Nc1cccc(S(=O)(=O)N2CCN(S(=O)(=O)c3ccc4c(c3)OCCO4)CC2)c1` [Compound 135], in that order: 98.13%, 146 nM, 41.1 nM and 82.08%.
With `Nc1cccc(S(=O)(=O)N2CCN(S(=O)(=O)c3c(F)cccc3F)CC2)c1` [Compound 137], the “LDH hPK, M2 Max. Res.” value at hPK-M2 [1] is on record as 154.42%. The AC50 on hPK-M2 [1] (setting [5]) amounted to 206 nM; at hPK-M2 [2] (setting [3]) it was 91.9 nM. For the same compound, the “hPK, M2 Max. Res.” value at hPK-M2 [2] worked out at 81.51%.

By AC50 is commonly meant the concentration giving half of the maximal activity seen.
